Test results: ChEMBL document CHEMBL3885861, “Open TG-GATES”

Species: Rattus norvegicus
Test: Open TG-GATES - Regimen: Daily Repeat
Assay type: toxicity, organism-based, Sprague-Dawley
Design: regimen Daily Repeat, gender Male, age 6 weeks
Conditions: in vivo, po, 60 mg/kg, route gavage, dose level Middle; for APTT / Bas / Eos / Fbg / Hb / Ht / Lym / MCH / MCHC / MCV / Mono / Neu / PT / Plat / RBC / Ret / WBC: tissue Blood; for KIDNEY_L / KIDNEY_R / KIDNEY_TOTAL: tissue Kidney; for LIVER: tissue Liver; for A/G / ALP / ALT / AST / BUN / CRE / Ca / Cl / DBIL / GLC / IP / K / LDH / Na / PL / RALB / TBIL / TC / TG / TP / gamma-GTP: tissue Plasma

CCc1oc2ccccc2c1C(=O)c1cc(Br)c(O)c(Br)c1 [BENZBROMARONE]
TERMINAL_BW (72 h, time 3 day): 238.9 g
APTT (72 h, time 3 day): 16.6 s
Bas (72 h, time 3 day): 0%
Eos (72 h, time 3 day): 1%
Fbg (72 h, time 3 day): 234.4 mg/dL
Hb (72 h, time 3 day): 13.5 g/dL
Ht (72 h, time 3 day): 40%
Lym (72 h, time 3 day): 76.4%
MCH (72 h, time 3 day): 21.6 pg
MCHC (72 h, time 3 day): 33.8%
MCV (72 h, time 3 day): 63.7 fL
Mono (72 h, time 3 day): 7.2%
Neu (72 h, time 3 day): 15.8%
PT (72 h, time 3 day): 11.6 s
Plat (72 h, time 3 day): 109.3 x10_4/uL
RBC (72 h, time 3 day): 628.4 x10_4/ul
Ret (72 h, time 3 day): 7.7%
WBC (72 h, time 3 day): 107.1 x10_2/uL
KIDNEY_L (72 h, time 3 day): 1.1 g
KIDNEY_R (72 h, time 3 day): 1.1 g
KIDNEY_TOTAL (72 h, time 3 day): 2.1 g
LIVER (72 h, time 3 day): 14.3 g
A/G (72 h, time 3 day): 2
ALP (72 h, time 3 day): 793.8 IU/L
ALT (72 h, time 3 day): 33.6 IU/L
AST (72 h, time 3 day): 62.2 IU/L
BUN (72 h, time 3 day): 18 mg/dL
CRE (72 h, time 3 day): 0.6 mg/dL
Ca (72 h, time 3 day): 10.3 mg/dL
Cl (72 h, time 3 day): 106.2 meq/L
DBIL (72 h, time 3 day): 0.014 mg/dL
GLC (72 h, time 3 day): 190 mg/dL
IP (72 h, time 3 day): 7.8 mg/dL
K (72 h, time 3 day): 4.5 meq/L
LDH (72 h, time 3 day): 104.4 IU/L
Na (72 h, time 3 day): 140.2 meq/L
PL (72 h, time 3 day): 138 mg/dL
RALB (72 h, time 3 day): 4 g/dL
TBIL (72 h, time 3 day): 0.3 mg/dL
TC (72 h, time 3 day): 76.4 mg/dL
TG (72 h, time 3 day): 62.8 mg/dL
TP (72 h, time 3 day): 5.9 g/dL
gamma-GTP (72 h, time 3 day): 0.8 IU/L
TERMINAL_BW ([…], time 7 day): 264.4 g
TERMINAL_BW ([…], time 14 day): 327 g
TERMINAL_BW ([…], time 28 day): 383.7 g
APTT ([…], time 7 day): 17.8 s
Bas ([…], time 7 day): 0%
Eos ([…], time 7 day): 1.2%
Fbg ([…], time 7 day): 234.6 mg/dL
Hb ([…], time 7 day): 14.4 g/dL
Ht ([…], time 7 day): 42.8%
Lym ([…], time 7 day): 80.8%
MCH ([…], time 7 day): 21.3 pg
MCHC ([…], time 7 day): 33.7%
MCV ([…], time 7 day): 63.3 fL
Mono ([…], time 7 day): 6.4%
Neu ([…], time 7 day): 11%
PT ([…], time 7 day): 12.2 s
Plat ([…], time 7 day): 119.4 x10_4/uL
RBC ([…], time 7 day): 675.2 x10_4/ul
Ret ([…], time 7 day): 5.6%
WBC ([…], time 7 day): 106.8 x10_2/uL
APTT ([…], time 14 day): 17.5 s
Bas ([…], time 14 day): 0%
Eos ([…], time 14 day): 1%
Fbg ([…], time 14 day): 237 mg/dL
Hb ([…], time 14 day): 14.5 g/dL
Ht ([…], time 14 day): 43.2%
Lym ([…], time 14 day): 79.4%
MCH ([…], time 14 day): 21.1 pg
MCHC ([…], time 14 day): 33.5%
MCV ([…], time 14 day): 63.1 fL
Mono ([…], time 14 day): 7%
Neu ([…], time 14 day): 12.4%
PT ([…], time 14 day): 12.1 s
Plat ([…], time 14 day): 110.5 x10_4/uL
RBC ([…], time 14 day): 685.4 x10_4/ul
Ret ([…], time 14 day): 4.6%
WBC ([…], time 14 day): 129.3 x10_2/uL
APTT ([…], time 28 day): 18.4 s
Bas ([…], time 28 day): 0%
Eos ([…], time 28 day): 1.6%
Fbg ([…], time 28 day): 232.6 mg/dL
Hb ([…], time 28 day): 15.2 g/dL
Ht ([…], time 28 day): 45.8%
Lym ([…], time 28 day): 84.2%
MCH ([…], time 28 day): 19.3 pg
MCHC ([…], time 28 day): 33.1%
MCV ([…], time 28 day): 58.2 fL
Mono ([…], time 28 day): 6%
Neu ([…], time 28 day): 8.8%
PT ([…], time 28 day): 12.3 s
Plat ([…], time 28 day): 107.4 x10_4/uL
RBC ([…], time 28 day): 787.4 x10_4/ul
Ret ([…], time 28 day): 2.8%
WBC ([…], time 28 day): 139.8 x10_2/uL
KIDNEY_L ([…], time 7 day): 1.2 g
KIDNEY_R ([…], time 7 day): 1.2 g
KIDNEY_TOTAL ([…], time 7 day): 2.4 g
KIDNEY_L ([…], time 14 day): 1.4 g
KIDNEY_R ([…], time 14 day): 1.3 g
KIDNEY_TOTAL ([…], time 14 day): 2.7 g
KIDNEY_L ([…], time 28 day): 1.5 g
KIDNEY_R ([…], time 28 day): 1.5 g
KIDNEY_TOTAL ([…], time 28 day): 2.9 g
LIVER ([…], time 7 day): 16.1 g
LIVER ([…], time 14 day): 20.1 g
LIVER ([…], time 28 day): 21.5 g
A/G ([…], time 7 day): 2.4
ALP ([…], time 7 day): 869.6 IU/L
ALT ([…], time 7 day): 28 IU/L
AST ([…], time 7 day): 57 IU/L
BUN ([…], time 7 day): 20 mg/dL
CRE ([…], time 7 day): 0.6 mg/dL
Ca ([…], time 7 day): 10.5 mg/dL
Cl ([…], time 7 day): 107.4 meq/L
DBIL ([…], time 7 day): 0 mg/dL
GLC ([…], time 7 day): 186.8 mg/dL
IP ([…], time 7 day): 7.8 mg/dL
K ([…], time 7 day): 5 meq/L
LDH ([…], time 7 day): 96.2 IU/L
Na ([…], time 7 day): 139.7 meq/L
PL ([…], time 7 day): 154 mg/dL
RALB ([…], time 7 day): 4.4 g/dL
TBIL ([…], time 7 day): 0.3 mg/dL
TC ([…], time 7 day): 82.6 mg/dL
TG ([…], time 7 day): 80 mg/dL
TP ([…], time 7 day): 6.3 g/dL
gamma-GTP ([…], time 7 day): 0.2 IU/L
A/G ([…], time 14 day): 2.1
ALP ([…], time 14 day): 872.6 IU/L
ALT ([…], time 14 day): 29.4 IU/L
AST ([…], time 14 day): 57.8 IU/L
BUN ([…], time 14 day): 20.2 mg/dL
CRE ([…], time 14 day): 0.6 mg/dL
Ca ([…], time 14 day): 10.5 mg/dL
Cl ([…], time 14 day): 106.3 meq/L
DBIL ([…], time 14 day): 0.01 mg/dL
GLC ([…], time 14 day): 191.4 mg/dL
IP ([…], time 14 day): 7.6 mg/dL
K ([…], time 14 day): 4.7 meq/L
LDH ([…], time 14 day): 97.4 IU/L
Na ([…], time 14 day): 140.3 meq/L
PL ([…], time 14 day): 156.4 mg/dL
RALB ([…], time 14 day): 4.5 g/dL
TBIL ([…], time 14 day): 0.3 mg/dL
TC ([…], time 14 day): 85.6 mg/dL
TG ([…], time 14 day): 85.8 mg/dL
TP ([…], time 14 day): 6.6 g/dL
gamma-GTP ([…], time 14 day): 0.8 IU/L
A/G ([…], time 28 day): 1.9
ALP ([…], time 28 day): 605.2 IU/L
ALT ([…], time 28 day): 34 IU/L
AST ([…], time 28 day): 54 IU/L
BUN ([…], time 28 day): 19.2 mg/dL
CRE ([…], time 28 day): 0.6 mg/dL
Ca ([…], time 28 day): 9.9 mg/dL
Cl ([…], time 28 day): 108.4 meq/L
DBIL ([…], time 28 day): 0.016 mg/dL
GLC ([…], time 28 day): 185.2 mg/dL
IP ([…], time 28 day): 6.9 mg/dL
K ([…], time 28 day): 4.5 meq/L
LDH ([…], time 28 day): 147.4 IU/L
Na ([…], time 28 day): 141 meq/L
PL ([…], time 28 day): 144.6 mg/dL
RALB ([…], time 28 day): 4.3 g/dL
TBIL ([…], time 28 day): 0.2 mg/dL
TC ([…], time 28 day): 84.4 mg/dL
TG ([…], time 28 day): 75.4 mg/dL
TP ([…], time 28 day): 6.6 g/dL
gamma-GTP ([…], time 28 day): 1 IU/L
